Experimental data reported in PubChem BioAssay (NCI).
Where “and” joins values, the source holds several entries; their conditions need not be identical. Equal entries are not always repeated.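 Interpolation was linear, between the two tested concentrations surrounding the appropriate level; five concentrations were tested over 48 hours in 96-well plates. At the GI50, growth is halved. Definition used: TGI = concentration required for complete inhibition of growth.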

Columns and labels:
Assay in all cases: growth of human tumour cells (NCI), 48 h
[1] = system: A549 NSCLC
[2] = system: CAKI-1 renal
[3] = system: COLO 205 colon
[4] = system: HCT-116 colon
[5] = system: MALME-3M melanoma
[6] = system: MOLT-4 leukemia
[7] = system: SK-MEL-2 melanoma
[8] = system: TK-10 renal
[9] = system: HOP-62 NSCLC
[10] = system: SN12C renal

Row | Compound | TGI [1] | TGI [2] | TGI [3] [µM] | TGI [4] [µM] | TGI [5] | TGI [6] | TGI [7] | TGI [8] | TGI [9] | TGI [10] | GI50 [1] [µM] | GI50 [2] [µM] | GI50 [3] [µM] | GI50 [4] [µM] | GI50 [9] [µM] | GI50 [6] [µM] | GI50 [7] [µM] | GI50 [10] [µM] | GI50 [8] [µM]
1 | CC(Cn1c2c3ccccc3ccc2c2oc(=O)c3ccccc3c21)N(C)C (configuration not stated) | > 100 µM | > 100 µM | > 100 | > 100 | > 100 µM | > 100 µM | > 100 µM | > 100 µM |  |  |  |  |  |  |  |  |  |  | 
2 | CC1=CC=NN2C(=O)[C@H](C)C2C1 (some centres not stated) | > 100 µM |  | > 100 | > 100 | > 100 µM | > 100 µM | > 100 µM | > 100 µM | > 100 µM | > 100 µM |  |  |  |  |  |  |  |  | 
3 | COc1ccc(OCC(=O)O)c2c1CCC(C(C)C)C2=O (configuration not stated) | > 100 µM | > 100 µM | > 100 | > 100 | > 100 µM | > 100 µM | > 100 µM | > 100 µM | > 100 µM |  |  |  |  |  |  |  |  |  | 
4 | CC(C)C(C(=O)O)N(CC1(O)OCC(O)C(O)C1O)N=O (configuration not stated) | > 100 µM |  | > 100 | > 100 | > 100 µM | > 100 µM | > 100 µM | > 100 µM | > 100 µM |  |  |  |  |  |  |  |  |  | 
5 | CCCCCCCCCCCCCS(=O)(=O)O | > 100 µM |  | > 100 | > 100 | > 100 µM |  | > 100 µM | > 100 µM | > 100 µM | > 100 µM |  |  |  |  |  |  |  |  | 
6 | CCN1C(=O)C/C(=C\C(C)=O)Nc2ccccc21 | > 100 µM | > 100 µM | > 100 | > 100 | > 100 µM | > 100 µM | > 100 µM | > 100 µM | > 100 µM |  |  |  |  |  |  |  |  |  | 
7 | C/C(=N\NC(=S)N1CCCCCC1)c1nccnc1C | 30.6 µM | > 100 µM |  |  | > 100 µM |  | 50.2 µM | > 100 µM | > 100 µM | > 100 µM |  |  |  |  |  |  |  |  | 
8 | CC(O)C1OC(O)C2OC(C)(C)OC12 (configuration not stated) | > 100 µM | > 100 µM | > 100 | > 100 |  | > 100 µM | > 100 µM | > 100 µM | > 100 µM | > 100 µM |  |  |  |  |  |  |  |  | 
9 | O=P(c1ccccc1)(c1ccccc1)C1CC=C(c2ccccc2)C2(CCCC2)C1 (configuration not stated) | > 100 µM | > 100 µM | 56.7 | > 100 | > 100 µM | 53.1 µM | > 100 µM | > 100 µM |  | > 100 µM |  |  |  |  |  |  |  |  | 
10 | CN(C)/[N+]([O-])=N/Oc1cc(Nc2cccc(C(=O)O)c2)c([N+](=O)[O-])cc1[N+](=O)[O-] | > 100 µM | > 100 µM | > 100 | > 100 |  | > 100 µM | > 100 µM | > 100 µM | > 100 µM | > 100 µM | > 100 | > 100 | > 100 | 34.5 | 32.2 | 61.4 | 36 | > 100 | > 100
11 | O=C1NC(=O)C(C(=O)C(=O)Nc2ccc(Br)cc2)C(=O)N1 | > 100 µM |  | > 100 | > 100 | > 100 µM | > 100 µM |  |  |  | > 100 µM |  |  |  |  |  |  |  |  | 
12 | CSC(=S)c1ccc(C(=S)SC)cc1 | > 100 µM | > 100 µM | > 100 | > 100 | > 100 µM | > 100 µM |  | > 100 µM | > 100 µM | > 100 µM |  |  |  |  |  |  |  |  | 
13 | COc1cc(Nc2cnc3cc(C(F)(F)F)ccc3n2)cc(OC)c1OC | > 100 µM |  | > 100 | > 100 | > 100 µM | > 100 µM | > 100 µM | > 100 µM | > 100 µM | > 100 µM |  |  |  |  |  |  |  |  | 
14 | Cc1ccc(C)c(NC(=O)C(=O)C2C(=O)C3=C(CC2(C)C)Nc2ccccc2S3)c1 (configuration not stated) | > 100 µM | > 100 µM | > 100 | > 100 |  | > 100 µM | > 100 µM | > 100 µM | > 100 µM | > 100 µM |  |  |  |  |  |  |  |  | 
15 | CCC/C(=N\NC(=S)N1CCN(c2ccccn2)CC1)c1ccccn1 | > 3.16 µM and 1.93 µM | > 5.37 µM and 1.92 µM |  | > 3.55 | 0.565 µM and 2.07 µM | > 10 µM and 1.05 µM | 0.312 µM and 1.65 µM | > 5.42 µM and 2.46 µM | 2.92 µM and 1.59 µM | 1.94 µM and 1.46 µM | 0.032 | 0.0143 |  |  | 0.0603 | 0.00925 | 0.19 | 0.339 | 1.09
16 | Cc1ccc(C)c(NC(=O)C(=O)C(c2cnc3ccc([N+](=O)[O-])cc3n2)[N+](=O)[O-])c1 (configuration not stated) | > 100 µM |  | > 100 | > 100 | > 100 µM | > 100 µM | > 100 µM | > 100 µM | > 100 µM | > 100 µM |  |  |  |  |  |  |  |  | 
17 | CC(=O)N1CCC2(C=Nc3ccccc32)CC1 | > 100 µM | > 100 µM | > 100 | > 100 | > 100 µM | > 100 µM | > 100 µM | > 100 µM | > 100 µM |  |  |  |  |  |  |  |  |  | 
18 | CCN(CC)CCCN(c1cc(OC)cc2nccnc12)S(=O)(=O)c1ccc(C)cc1 | > 100 µM | > 100 µM | > 100 |  | > 100 µM | > 100 µM | > 100 µM | > 100 µM | > 100 µM | > 100 µM |  |  |  |  |  |  |  |  | 
19 | NC(=S)/N=C/c1c(O)c2ccccc2oc1=O | > 100 µM | 77.9 µM | > 100 | > 100 | 99.4 µM | > 100 µM | 97.3 µM | > 100 µM |  | > 100 µM |  |  |  |  |  |  |  |  | 
20 | Oc1cccc2c1NC1=C(CCC/C1=C\c1ccccc1)C2 | > 100 µM |  | > 100 | > 100 | > 100 µM | > 100 µM |  | > 100 µM | > 100 µM |  |  |  |  |  |  |  |  |  | 
21 | CCNc1nnc(CSc2nc(-c3ccccc3)c(-c3ccccc3)[nH]2)s1 | 69.5 µM |  | 51.2 | 38.8 | 48.4 µM | 56.7 µM | 41.9 µM | 56.5 µM | 35.7 µM | 56.5 µM |  |  |  |  |  |  |  |  | 
22 | Cn1ncc(=S)[nH]c1=S | > 100 µM |  | > 100 | > 100 | > 100 µM | > 100 µM | > 100 µM | > 100 µM | > 100 µM | > 100 µM |  |  |  |  |  |  |  |  | 
23 | CN(C)c1ccc(-c2cc(=O)c3ccccc3[nH]2)cc1 | > 100 µM |  | > 100 | > 100 | > 100 µM | > 100 µM |  | > 100 µM | > 100 µM | > 100 µM |  |  |  |  |  |  |  |  | 
